Earlier results as cited in patent publication EP0811056B1, “PEPTIDES FOR TISSUE AND CELL CULTURE MEDIA” (QUEST INTERNATIONAL B.V., priority 1995, dated 1996).

Settings: on a glutamine basis

Glycyl-L-glutamine
amount of the dipeptide needed compared with free glutamine to obtain the same result: up to 6 times
